The values below come from patent US20200003760A1, “IN-VITRO METHODS FOR CLASSIFYING DRUGS ACCORDING TO THEIR POTENTIAL TO CAUSE LIVER CELL INJURY” (Board of Trustees of Michigan State University, priority 2018, published 2020).

Where two headings read alike, the source gives them in different places.

One data set relates to HepG2 cells. Kind of data set: Drug/cytokine-induced cytotoxicity (% LDH release) concentration-response in HepG2 cells. Also on record: key to Deltadiff: LDH release percentage points (drug/TNF Delta minus drug/VEH Delta). Particulars: for R10 / R10 IFN / R10 TNF / R10 TNF/IFN: 10 percent increase in LDH response above min, 0 when D10 = 0; for R10 / Emax / D10 (LDH rise of at least 10 points, yes/no) / EC10: drug alone (VEH); for R10 IFN: with IFN; for R10 TNF: with TNF; for R10 TNF/IFN / EC10 TNF/IFN: with TNF and IFN; for Deltadiff: Delta of drug/TNF curve minus Delta of drug/VEH curve (LDH percentage); for Emax / D10 (LDH rise of at least 10 points, yes/no): Homo sapiens, HepG2; for TNF change: D10TNF − D10VEH; for cytotoxic interaction of drug with TNF / effect of IFN coexposure on the drug/TNF cytotoxic interaction / cytotoxicity of drug on its own (LDH release): HepG2, 24 h; for cytotoxic interaction of drug with TNF: TNF 10 ng/ml; for effect of IFN coexposure on the drug/TNF cytotoxic interaction: TNF and IFN 10 ng/ml each; for cytotoxicity of drug on its own (LDH release): absence of cytokines; for EC10: value corresponding to 10% of Delta (max-min); for EC10 / EC10 IFN / EC10 TNF / EC10 TNF/IFN: NA = no significant increase; for EC10 IFN / EC10 TNF / EC10 TNF/IFN: value corresponding to 10% of Delta; for EC10 IFN: with IFN 10 ng/ml; for EC10 TNF: with TNF 10 ng/ml. The class given is cell-based, human. How it is done:
Cells were passed or used for experiments when they reached approximately 80% confluence. Cells were used at passage 6-16.
HepG2 cells were plated at a density of 4×10^4 cells per well in black-walled, 96-well, tissue culture plates and were allowed to attach overnight before being treated with compounds. Drugs were reconstituted in vehicles consisting of sterile water or DMSO (concentration less than 0.5%). Cells were treated with various concentrations of the drug or its vehicle (control) alone or in combination with the cytokines TNF (10 ng/ml) and/or IFN (10 ng/ml) or their PBS vehicle (VEH). Cytotoxicity was evaluated as lactate dehydrogenase (LDH) activity released from the cells into culture medium using the Homogeneous Membrane Integrity Assay kit from Promega (Madison, Wis.).
Concentration-response curves were generated for 24 drugs, 14 of which are associated with human IDILI and 10 of which are not. […] This was necessary because four-parameter logistic modeling used in the statistical analysis requires well defined, sigmoidal concentration-response curves. Cells were exposed to drug/cytokine combinations for 24 hours. For analysis of drug concentration-response data, concentrations of each drug were expressed as a fraction of its Cmax.
Defining covariates: four-parameter logistic model. In the first phase, variables (potential covariates) for use in the classification analysis were defined from the analysis of drug concentration-response data. Initially, a one-way analysis of variance (ANOVA) was used as an omnibus test to determine if a particular treatment (e.g. drug alone or in combination with TNF and/or IFN) caused a significant change in LDH release relative to baseline (i.e., LDH release in the absence of drug, hereafter designated “min”). The criterion for significance for the ANOVA was set at α=0.01. A 1% level of significance was used to rule out more vigorously marginal relationships between concentration and response.
where LDH(x) is the percentage of LDH released at a given concentration x; x=[drug]/Cmax; min=the % LDH release at 0 drug concentration (i.e., baseline); and max=the maximal LDH response (i.e., maximum % LDH release).
where D10 is a categorical variable related to reaching a threshold LDH response above which a drug is classified as positively associated with IDILI. D10 is defined as 0 if Delta<10% LDH release and as 1 if Delta≥10% LDH release.
The base covariate R10 represents the [drug]/Cmax value associated with an increase in 10 LDH percentage points above min for a particular treatment condition and was determined by the equation:
R10 was considered to be 0 when the Delta<10% LDH (i.e. when D10=0).
EC50 quotient, EC10 quotient and R10 quotient represent the ratio between the EC50, EC10 or R10 of the drug/cytokine concentration-response curve and the respective value for the drug/VEH concentration-response curve. In some instances, the value derived from this calculation is indeterminate (i.e. when the denominator=0). In order to incorporate the quotient values into the classification models described below, the categorical variable “Q” was used to eliminate the possibility of the quotient being indeterminate. Q is defined as 0 if Delta VEH and/or Delta cytokine is <10% LDH and 1 if both Delta VEH and Delta cytokine are ≥10% LDH. […] The same condition was applied for calculation of EC10 quotient and R10 quotient.
Deltadiff represents the difference between the Delta of the drug/cytokine concentration-response curve and the Delta of the drug/VEH curve. In other words, Deltadiff=(Delta cytokine)−(Delta VEH). FIG. 1 graphically illustrates several of the covariates defined above. […] In addition to the covariates derived from the concentration-response curves, the maximal therapeutic plasma drug concentration (Cmax) in human patients was used in some models (Table 1).
A general note: Release of lactate dehydrogenase indicates damage to the cell membrane.

The nature of data set [1]: Logistic regression classification model: probability that a drug is associated with IDILI. Also on record: species or system human. The following applies: probability that drug is associated with IDILI; covariates Deltadiff, EC50 VEH, EC50 TNF, Delta VEH, Cmax; optimal cutoff 0.46. The text has this: Classification modeling using defined covariates. In the second phase of analysis, classification models were developed using logistic regression with covariates as independent variables in the analysis and known IDILI classification as the dependent variable. A model selection process was used to determine if a covariate or set of covariates is associated with IDILI liability. Covariates were first evaluated individually to determine how well a particular covariate classified drugs according to IDILI liability, and then covariates were evaluated in combination. Combinations of covariates were selected to maximize the ability of the model to distinguish between drugs associated or not with IDILI. Specifically, covariates that describe changes in efficacy (Delta, Deltadiff, etc.) were paired with covariates that describe changes in potency (EC50, EC10, R10, etc.) to find covariate combinations that led to models that most accurately discriminated between drugs that are and are not associated with IDILI. […] The logistic regression models follow the equation: […]
where ŷi is the calculated (predicted) probability that drug i with a vector of covariates xi is associated with IDILI. The β coefficients (β0, the regression intercept; and βi, the regression slopes for model covariates, xi) were derived from the logistic regression models using 1) combinations of the covariates (xi) generated by concentration-response modeling for each of the 24 drugs evaluated in this study, and 2) the true IDILI classification for the dependent variable yi (i.e., 1 for IDILI+drugs and 0 for IDILI-drugs). […] This occurs when a covariate almost perfectly separates observations into the appropriate categories. […] When separation or quasi-complete separation occurs, use of the standard method (i.e., maximum likelihood estimation) provides biased, unreliable estimates of βi.
Receiver operating characteristic (ROC) analysis. In the third phase of the statistical approach, the classification models, generated as logistic regression models using single covariates or combinations of covariates, were evaluated by ROC analysis to determine which model and corresponding sets of covariates led to the most accurate classification of drugs according to their potential to cause IDILI. An ROC curve was created for each model by graphing the true positive rate (sensitivity; i.e., proportion of drugs correctly classified as associated with IDILI) against the false positive rate (1-specificity; i.e., proportion of drugs incorrectly classified as associated with IDILI) at various probability cutoff thresholds (k). […] An area under the curve (AUC) and confidence interval was computed for each ROC curve (where each logistic regression model has one ROC curve). […] Corresponding to each ROC curve is an optimal threshold value (k*), the threshold yielding the highest point of accuracy on the curve (i.e., the point nearest the point […] on the curve). Thus, each ROC curve has a corresponding AUC and an optimal cutoff (k*) that corresponds to the highest point of accuracy on that ROC curve.

The conditions of data set [2]: maximal plasma concentration after pharmacologic dosing in human patients; cited from earlier work.
The conditions of data set [3]: cited from earlier work; for True classification: IDILI in human patients; for IDILI liability: criteria of Xu et al. (2008).
Where [4] appears, read: categorical, Delta threshold 10 LDH percentage points, read-out: D10.
Setting [5] is: maximal LDH response, 24 h, read-out: max.
The mark [6] stands for this setting: categorical, Delta threshold 10 LDH percentage points.

Take `CC(=O)[C@]1(O)Cc2c(O)c3c(c(O)c2[C@@H](O[C@H]2C[C@H](N)[C@H](O)[C@H](C)O2)C1)C(=O)c1ccccc1C3=O` [Idarubicin]: in the data set on HepG2 cells, the R10 was 0 [drug]/Cmax, the “R10 IFN” value was 0 [drug]/Cmax, the “R10 TNF” value is 0 [drug]/Cmax and the “R10 TNF/IFN” value is 0 [drug]/Cmax. In the data set on HepG2 cells, the Deltadiff came to 0. For the same compound, the Emax with HepG2 cells (setting [4]) was less than 10%. In the data set with HepG2 cells (setting [5]), the Emax turned out to be 13.9%. Also, the TNF change with HepG2 cells (categorical) was 0. Moreover, the Estimated probability in data set [1] is reported as 0.1275. In addition, in data set [2], the Cmax was 20 nM. In addition, in data set [3], the True classification result is “IDILI−” and the IDILI liability result is listed as “IDILI−”.
`NNC(=O)c1ccncc1` [Isoniazid]: in the data set with HepG2 cells, the R10 was 440.9 [drug]/Cmax, the “R10 IFN” value is 434.0 [drug]/Cmax, the “R10 TNF” value was 268.1 [drug]/Cmax and the “R10 TNF/IFN” value was 208.7 [drug]/Cmax. Besides, in the data set on HepG2 cells, the Deltadiff was found to be 38.8, the “cytotoxic interaction of drug with TNF” value is given as “TNF significantly enhanced the cytotoxicity”, the “effect of IFN coexposure on the drug/TNF cytotoxic interaction” value is listed as “coexposure to IFN enhanced the cytotoxic interaction” and the “cytotoxicity of drug on its own (LDH release)” value (“cytotoxicity of drug on its own” below) is given as “statistically significant increase in LDH release”. In addition, in the data set on HepG2 cells, the EC10 was 427.0 [drug]/Cmax, the “EC10 IFN” value is 420.5 [drug]/Cmax, the “EC10 TNF” value is 248.0 [drug]/Cmax and the “EC10 TNF/IFN” value was 169.7 [drug]/Cmax. In the data set with HepG2 cells (setting [6]), the D10 (LDH rise of at least 10 points, yes/no) was more than 10%. Also, the Emax in the data set with HepG2 cells (setting [5]) was determined as 57.7%. For the same compound, in the data set with HepG2 cells (categorical), the TNF change was 0. For the same compound, the Estimated probability in data set [1] is reported as 0.7562. Further, in data set [2], the Cmax was 77000 nM. In addition, in data set [3], the True classification entry is recorded as “IDILI+” and the IDILI liability entry is “IDILI+”.
Turning to `COc1cccc2c1C(=O)c1c(O)c3c(c(O)c1C2=O)C[C@@](O)(C(=O)CO)C[C@@H]3O[C@H]1C[C@H](N)[C@H](O)[C@H](C)O1` [Doxorubicin], in the data set on HepG2 cells, the R10 was 12.4 [drug]/Cmax, the “R10 IFN” value was 9.7 [drug]/Cmax, the “R10 TNF” value is 2.0 [drug]/Cmax and the “R10 TNF/IFN” value is 0.7 [drug]/Cmax. In the data set on HepG2 cells, the Deltadiff is reported as −15.2, the “cytotoxic interaction of drug with TNF” value is on record as “TNF significantly enhanced the cytotoxicity”, the “cytotoxicity of drug on its own” value is “statistically significant increase in LDH release” and the EC10 is 12.0 [drug]/Cmax. In the data set with HepG2 cells, the “EC10 TNF” value was 1.7 [drug]/Cmax and the “EC10 TNF/IFN” value is 0.6 [drug]/Cmax. In the data set on HepG2 cells (setting [6]), the D10 (LDH rise of at least 10 points, yes/no) was more than 10%. Further, in the data set on HepG2 cells (setting [5]), the Emax was 113%. In the data set with HepG2 cells (categorical), the TNF change stood at 0. Moreover, the Estimated probability in data set [1] is on record as 0.8839. Also, the Cmax in data set [2] was 1000 nM. Besides, in data set [3], the True classification result is “IDILI+” and the IDILI liability entry was “IDILI+”.
With `CC(=O)Oc1ccccc1C(=O)O` [Aspirin], in the data set with HepG2 cells, the R10 is 0 [drug]/Cmax, the “R10 IFN” value is 0 [drug]/Cmax, the “R10 TNF” value was 0 [drug]/Cmax and the “R10 TNF/IFN” value is 0 [drug]/Cmax. Also, the Deltadiff with HepG2 cells came to 0. Further, the Emax in the data set on HepG2 cells (setting [4]) was less than 10%. Besides, the Emax in the data set with HepG2 cells (setting [5]) was determined as 11%. In addition, the TNF change in the data set on HepG2 cells (categorical) amounted to 0. Also, the Estimated probability in data set [1] is on record as 0.1445. In data set [2], the Cmax was 47000 nM. Further, in data set [3], the True classification result was “IDILI−” and the IDILI liability result was “IDILI−”.
For `CN(C)CCCN1c2ccccc2Sc2ccc(Cl)cc21` [Chlorpromazine], in the data set on HepG2 cells, the R10 is 36.0 [drug]/Cmax, the “R10 IFN” value is 34.8 [drug]/Cmax, the “R10 TNF” value was 31.5 [drug]/Cmax and the “R10 TNF/IFN” value was 25.3 [drug]/Cmax. In addition, in the data set on HepG2 cells, the Deltadiff was −15.3, the “cytotoxic interaction of drug with TNF” value is recorded as “TNF significantly enhanced the cytotoxicity”, the “effect of IFN coexposure on the drug/TNF cytotoxic interaction” value was “coexposure to IFN enhanced the cytotoxic interaction” and the “cytotoxicity of drug on its own” value is listed as “statistically significant increase in LDH release”. In the data set on HepG2 cells, the EC10 was 35.8 [drug]/Cmax, the “EC10 IFN” value is 34.1 [drug]/Cmax, the “EC10 TNF” value was 30.5 [drug]/Cmax and the “EC10 TNF/IFN” value is 24.1 [drug]/Cmax. The D10 (LDH rise of at least 10 points, yes/no) in the data set on HepG2 cells (setting [6]) is more than 10%. Besides, the Emax in the data set on HepG2 cells (setting [5]) stood at 111%. For the same compound, the Estimated probability in data set [1] was 0.961. Also, the Cmax in data set [2] was 840 nM. Moreover, in data set [3], the True classification result is “IDILI+” and the IDILI liability entry was “IDILI+”.

The term Cmax denotes the maximum level reached in the sampled fluid or tissue.
